According to patent publication US6972172B2, “Combinatorial complex carbohydrate libraries and methods for the manufacture and uses thereof” (Glycominds Ltd., priority 2000, dated 2005):
Values belong to the substance of their own block, whether it stands above or below them.

Columns and labels:
[1] = activity of the polysaccharide as cited from the reference in Table 15; cited from earlier work
[2] = test system: TGP lectin; test: TGP lectin binding assay; set-up: species or system Tereagonolobus purpureas; conditions: Library 1 strip after the ERs sequence; peroxidase-conjugated lectin, O.D. 450 nm; versus control strip without nucleotide sugar
Method: TGP: 100 μl of 20 μg/ml TGP lectin conjugated to peroxidase (SIGMA L-1508, 10 peroxidase units per mg protein) was added to the plates and incubated for one hour at 25° C. in TBS containing 1% BSA and 10 millimolar of MnCl2 and of CaCl2. The wells were washed three times with 200 μl TBST with a last wash consisting of a 15 minutes soak. 100 μl of fresh peroxidase substrate solution was added, and an hour later the O.D. of the solution (at 450 nm) was determined. When the above described binding assays were performed on covalently coupled monosaccharide acceptors, such as the case with Covalink NH plates, the TBS incubation solution was replaced with TBST and the wash steps were performed using high ionic strength buffer instead of TBST.

[3] = test system: anti-Sialyl Lewis X IgM from mouse; test: Anti-Sialyl Lewis X antibody binding assay; conditions: Library 1 strip after the ERs sequence, anti-mouse IgM-biotin, avidin-peroxidase, O.D. 450 nm, versus control strip without nucleotide sugar
Method: Anti-Sialyl Lewis X: 100 μl of 10 μg/ml anti-Sialyl Lewis X IgM from mouse (Calbiochem 565953) was added to the plates and incubated for 1 hour at 25° C. in TBS containing 1% BSA. The wells were washed 3 times with 200 μl TBST with a last wash consisting of a 15 minutes soak, following which, a solution of TBS containing 1% BSA and 100 μl of 5 μg/ml goat anti-mouse IgM conjugated to biotin (SIGMA b-9265) was added to the plates and incubated for one hour at 25° C. The wells were washed 3 times with […] with a last wash consisting of a 15 minutes soak, followed by incubation with […] containing 1% BSA and 5 μg/ml avidin conjugated to peroxidase (SIGMA A-3151, 40 peroxidase units per mg protein) for 1 hour at 25° C. The wells were washed three times with 200 μl TBST with a last wash consisting of a 15 minutes soak. 100 μl of fresh peroxidase substrate solution was added, and an hour later the O.D. of the solution (at 450 nm) was determined.
When the above described binding assays were performed on covalently coupled monosaccharide acceptors, such as the case with Covalink NH plates, the TBS incubation solution was replaced with TBST and the wash steps were performed using high ionic strength buffer instead of TBST.

Substance: Fucoidan
Activity [1]: anti coagulant

TGP binding [2]: increase
Substance: Gal β 1,4 (Fuc α 1,3)GlcNAc-S [EM 5]

IgM Anti-Sialyl Lewis X binding [3]: increase
Substance: NeuAC α 2,3 Gal β 1,4 (Fuc α 1,3)GlcNAc [EM 6]
